The results in this text go back to patent US20230203098A1, “HUMAN TRANSFERRIN RECEPTOR BINDING PEPTIDE” (priority 2020, published 2023).

Where a SMILES comes first, the peptide text is derived from it. Bridges are numbered along the chain shown (N, C = ends). [ ]: non-standard residue; d: D form. NMePhe(3-Cl) = CN[C@@H](Cc1cccc(Cl)c1)C(=O)O; NMeW = CN[C@@H](Cc1c[nH]c2ccccc12)C(=O)O; NMeY = CN[C@@H](Cc1ccc(O)cc1)C(=O)O; Ahp(2) = CCCCC[C@H](N)C(=O)O; PEG4 = NCCOCCOCCOCCOCCC(=O)O; hLys = NCCCCC[C@H](N)C(=O)O; dOrn = NCCC[C@@H](N)C(=O)O; Dab = NCC[C@H](N)C(=O)O; Dap = NC[C@H](N)C(=O)O A value given as a limit tells only on which side of the number the result lay.

For the first assay, the target named is transferrin receptor (hTfR) (Homo sapiens, UniProt P02786). Briefly: Intermolecular interaction evaluation test between transferrin receptor (hTfR) and peptide by surface plasmon resonance (SPR). Type of assay: binding.
Chain of transferrin receptor (hTfR) (P02786 whole entry): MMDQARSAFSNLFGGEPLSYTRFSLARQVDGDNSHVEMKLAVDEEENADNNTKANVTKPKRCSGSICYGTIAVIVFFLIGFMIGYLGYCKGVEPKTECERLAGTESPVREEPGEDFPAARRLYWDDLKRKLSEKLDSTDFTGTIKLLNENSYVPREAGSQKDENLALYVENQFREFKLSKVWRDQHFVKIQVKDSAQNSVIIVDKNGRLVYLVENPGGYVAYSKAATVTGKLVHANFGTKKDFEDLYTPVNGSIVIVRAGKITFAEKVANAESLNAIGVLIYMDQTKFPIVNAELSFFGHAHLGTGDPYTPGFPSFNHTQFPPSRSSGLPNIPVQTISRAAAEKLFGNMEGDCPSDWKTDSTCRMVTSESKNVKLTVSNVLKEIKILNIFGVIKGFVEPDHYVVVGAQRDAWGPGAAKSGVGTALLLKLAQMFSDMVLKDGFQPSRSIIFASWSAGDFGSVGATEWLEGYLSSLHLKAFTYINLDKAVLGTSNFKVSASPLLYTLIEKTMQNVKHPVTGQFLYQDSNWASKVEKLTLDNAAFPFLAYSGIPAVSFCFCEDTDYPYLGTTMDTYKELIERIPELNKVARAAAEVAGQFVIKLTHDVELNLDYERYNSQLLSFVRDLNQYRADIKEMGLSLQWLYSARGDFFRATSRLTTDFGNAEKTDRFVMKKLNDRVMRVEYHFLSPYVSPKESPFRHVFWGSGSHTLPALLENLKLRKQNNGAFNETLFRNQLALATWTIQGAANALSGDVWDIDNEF
Conditions: not given
Put shortly:
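Receptor was Ni-captured and EDC/NHS-fixed on an NTA chip; running buffer HEPES pH 8.0 with NaCl, Tween 20, BSA and 1.0% DMSO.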
(In general: In SPR one partner is held on a chip, and binding of the other changes the refractive index at the surface.)
On to `CC[C@H](C)[C@@H]1NC(=O)[C@H](Cc2ccc(OC)cc2)NC(=O)[C@H](Cc2ccc(O)cc2)NC(=O)[C@H](CC(N)=O)NC(=O)[C@H](Cc2c[nH]c3ccccc23)N(C)C(=O)[C@H](C(C)C)NC(=O)[C@H](Cc2cccc(Cl)c2)N(C)C(=O)[C@H](C(C)C)NC(=O)[C@H](C)NC(=O)CSC[C@@H](C(=O)NCC(=O)NCC(=O)NCC(=O)NCC(=O)N[C@@H](CO)C(=O)N[C@@H](CO)C(=O)N[C@@H](CS)C(N)=O)NC(=O)[C@H](Cc2ccc(O)cc2)N(C)C(=O)[C@H](Cc2ccccc2)NC(=O)[C@@H](CCCNC(=N)N)NC(=O)[C@H](CN)NC(=O)[C@H]([C@@H](C)CC)NC1=O` [compound 367], for which the Kd (commonly a measure of binding affinity in units of concentration) is 1 to 100 nM.

Regarding `CC[C@H](C)[C@@H]1NC(=O)[C@H](Cc2ccc(OC)cc2)NC(=O)[C@H](Cc2ccc(O)cc2)NC(=O)[C@H](CC(N)=O)NC(=O)[C@H](Cc2c[nH]c3ccccc23)N(C)C(=O)[C@H](C(C)C)NC(=O)[C@H](Cc2cccc(Cl)c2)N(C)C(=O)[C@H](C(C)C)NC(=O)[C@H](C)NC(=O)CSC[C@@H](C(=O)NCC(=O)NCC(=O)NCC(=O)NCC(=O)N[C@@H](CO)C(=O)N[C@@H](CO)C(=O)N[C@@H](CS)C(N)=O)NC(=O)[C@H](Cc2ccc(O)cc2)N(C)C(=O)[C@H](Cc2ccccc2)NC(=O)[C@@H](CCCNC(=N)N)NC(=O)[C@H](CCCCCN)NC(=O)[C@H]([C@@H](C)CC)NC1=O` [compound 370], the Kd was in the range of 1 to 100 nM.

The assay is the same for the next values; noted with them: surface plasmon resonance, hTfR; read-out: KD value for hTfR by SPR (class symbol).
On to `CCCCC[C@@H]1NC(=O)[C@H]([C@@H](C)CC)NC(=O)[C@H]([C@@H](C)CC)NC(=O)[C@H](Cc2ccc(OC)cc2)NC(=O)[C@H](Cc2ccc(O)cc2)NC(=O)[C@H](CC(N)=O)NC(=O)[C@H](Cc2c[nH]c3ccccc23)N(C)C(=O)[C@H](C(C)C)NC(=O)[C@H](Cc2cccc(Cl)c2)N(C)C(=O)[C@H](C(C)C)NC(=O)[C@H](C)NC(=O)CSC[C@@H](C(=O)NCCOCCOCCOCCOCCC(N)=O)NC(=O)[C@H](Cc2ccc(O)cc2)N(C)C(=O)[C@H](Cc2ccccc2)NC(=O)[C@@H](CCCNC(=N)N)NC1=O` [compound 362] ({CH2CO}-AV[NMePhe(3-Cl)]V[NMeW]NYY(Me)II[Ahp(2)][dR]F[NMeY]C[PEG4]-NH2; thioether N-15), for which the Kd lay in the range of 1 to 100 nM.

With `CC[C@H](C)[C@@H]1NC(=O)[C@H](Cc2ccc(OC)cc2)NC(=O)[C@H](Cc2ccc(O)cc2)NC(=O)[C@H](CC(N)=O)NC(=O)[C@H](Cc2c[nH]c3ccccc23)N(C)C(=O)[C@H](C(C)C)NC(=O)[C@H](Cc2cccc(Cl)c2)N(C)C(=O)[C@H](C(C)C)NC(=O)[C@H](C)NC(=O)CSC[C@@H](C(N)=O)NC(=O)[C@H](Cc2ccc(O)cc2)N(C)C(=O)[C@H](Cc2ccccc2)NC(=O)[C@@H](CCCNC(=N)N)NC(=O)[C@H](CCC(=O)NCCOCCOCCOCCOCCOCCOCCOCCOC)NC(=O)[C@H]([C@@H](C)CC)NC1=O` [compound 363], the Kd lay in the range of 1 to 100 nM. Regarding `CC[C@H](C)[C@@H]1NC(=O)[C@H](Cc2ccc(OC)cc2)NC(=O)[C@H](Cc2ccc(O)cc2)NC(=O)[C@H](CC(N)=O)NC(=O)[C@H](Cc2c[nH]c3ccccc23)N(C)C(=O)[C@H](C(C)C)NC(=O)[C@H](Cc2cccc(Cl)c2)N(C)C(=O)[C@H](C(C)C)NC(=O)[C@H](C)NC(=O)CSC[C@@H](C(N)=O)NC(=O)[C@H](Cc2ccc(O)cc2)N(C)C(=O)[C@H](Cc2ccccc2)NC(=O)[C@@H](CCCNC(=N)N)NC(=O)C2(CCN(C)CC2)NC(=O)[C@H]([C@@H](C)CC)NC1=O` [compound 364], the equilibrium dissociation constant (Kd) lay in the range of 1 to 100 nM. With `CC[C@H](C)[C@@H]1NC(=O)[C@H](Cc2ccc(OC)cc2)NC(=O)[C@H](Cc2ccc(O)cc2)NC(=O)[C@H](CC(N)=O)NC(=O)[C@H](Cc2c[nH]c3ccccc23)N(C)C(=O)[C@H](C(C)C)NC(=O)[C@H](Cc2cccc(Cl)c2)N(C)C(=O)[C@H](C(C)C)NC(=O)[C@H](C)NC(=O)CSC[C@@H](C(=O)NCCOCCOCCOCCOCCC(N)=O)NC(=O)[C@H](Cc2ccc(O)cc2)N(C)C(=O)[C@H](Cc2ccccc2)NC(=O)[C@@H](CCCNC(=N)N)NC(=O)[C@H](CN)NC(=O)[C@H]([C@@H](C)CC)NC1=O` [compound 365] ({CH2CO}-AV[NMePhe(3-Cl)]V[NMeW]NYY(Me)II[Dap][dR]F[NMeY]C[PEG4]-NH2; thioether N-15), the equilibrium dissociation constant (Kd) lay within 1 to 100 nM. For the molecule `CC[C@H](C)[C@@H]1NC(=O)[C@H](Cc2ccc(OC)cc2)NC(=O)[C@H](Cc2ccc(O)cc2)NC(=O)[C@H](CC(N)=O)NC(=O)[C@H](Cc2c[nH]c3ccccc23)N(C)C(=O)[C@H](C(C)C)NC(=O)[C@H](Cc2cccc(Cl)c2)N(C)C(=O)[C@H](C(C)C)NC(=O)[C@H](C)NC(=O)CSC[C@@H](C(=O)NCCOCCOCCOCCOCCC(N)=O)NC(=O)[C@H](Cc2ccc(O)cc2)N(C)C(=O)[C@H](Cc2ccccc2)NC(=O)[C@@H](CCCNC(=N)N)NC(=O)[C@H](CCN)NC(=O)[C@H]([C@@H](C)CC)NC1=O` [compound 366] ({CH2CO}-AV[NMePhe(3-Cl)]V[NMeW]NYY(Me)II[Dab][dR]F[NMeY]C[PEG4]-NH2; thioether N-15), the Kd lay within 1 to 100 nM.

Turning to `CC[C@H](C)[C@@H]1NC(=O)[C@H](Cc2ccc(OC)cc2)NC(=O)[C@H](Cc2ccc(O)cc2)NC(=O)[C@H](CC(N)=O)NC(=O)[C@H](Cc2c[nH]c3ccccc23)N(C)C(=O)[C@H](C(C)C)NC(=O)[C@H](Cc2cccc(Cl)c2)N(C)C(=O)[C@H](C(C)C)NC(=O)[C@H](C)NC(=O)CSC[C@@H](C(=O)NCCOCCOCCOCCOCCC(N)=O)NC(=O)[C@H](Cc2ccc(O)cc2)N(C)C(=O)[C@H](Cc2ccccc2)NC(=O)[C@@H](CCCNC(=N)N)NC(=O)[C@@H](CCCN)NC(=O)[C@H]([C@@H](C)CC)NC1=O` [compound 368] ({CH2CO}-AV[NMePhe(3-Cl)]V[NMeW]NYY(Me)II[dOrn][dR]F[NMeY]C[PEG4]-NH2; thioether N-15), the Kd lay in the range of 1 to 100 nM.

For the molecule `CC[C@H](C)[C@@H]1NC(=O)[C@H](Cc2ccc(OC)cc2)NC(=O)[C@H](Cc2ccc(O)cc2)NC(=O)[C@H](CC(N)=O)NC(=O)[C@H](Cc2c[nH]c3ccccc23)N(C)C(=O)[C@H](C(C)C)NC(=O)[C@H](Cc2cccc(Cl)c2)N(C)C(=O)[C@H](C(C)C)NC(=O)[C@H](C)NC(=O)CSC[C@@H](C(=O)NCCOCCOCCOCCOCCC(N)=O)NC(=O)[C@H](Cc2ccc(O)cc2)N(C)C(=O)[C@H](Cc2ccccc2)NC(=O)[C@@H](CCCNC(=N)N)NC(=O)[C@H](CCCCCN)NC(=O)[C@H]([C@@H](C)CC)NC1=O` [compound 369] ({CH2CO}-AV[NMePhe(3-Cl)]V[NMeW]NYY(Me)II[hLys][dR]F[NMeY]C[PEG4]-NH2; thioether N-15), the Kd lay within 1 to 100 nM.

Turning to `CC[C@H](C)[C@@H]1NC(=O)[C@H](Cc2ccc(OC)cc2)NC(=O)[C@H](Cc2ccc(O)cc2)NC(=O)[C@H](CC(N)=O)NC(=O)[C@H](Cc2c[nH]c3ccccc23)N(C)C(=O)[C@H](C(C)C)NC(=O)[C@H](Cc2cccc(Cl)c2)N(C)C(=O)[C@H](C(C)C)NC(=O)[C@H](C)NC(=O)CSC[C@@H](C(N)=O)NC(=O)[C@H](Cc2ccc(O)cc2)N(C)C(=O)[C@H](Cc2ccccc2)NC(=O)[C@H](CCCNC(=N)N)NC(=O)[C@H](CCCCN)NC(=O)[C@H]([C@@H](C)CC)NC1=O` [compound 371], the Kd was less than 1 nM. Still for that read-out and setting: in the case of `CC[C@H](C)[C@@H]1NC(=O)[C@H](Cc2ccc(OC)cc2)NC(=O)[C@H](Cc2ccc(O)cc2)NC(=O)[C@H](CC(N)=O)NC(=O)[C@H](Cc2c[nH]c3ccccc23)N(C)C(=O)[C@H](C(C)C)NC(=O)[C@H](Cc2cccc(Cl)c2)N(C)C(=O)[C@H](C(C)C)NC(=O)[C@H](C)NC(=O)CSC[C@@H](C(N)=O)NC(=O)[C@H](Cc2ccc(O)cc2)N(C)C(=O)[C@H](Cc2ccccc2)NC(=O)[C@@H](C)NC(=O)[C@H](CCCCN)NC(=O)[C@H]([C@@H](C)CC)NC1=O` [compound 372] it was 1 to 100 nM; in that of `CC[C@H](C)[C@@H]1NC(=O)[C@H](Cc2ccc(OC)cc2)NC(=O)[C@H](Cc2ccc(O)cc2)NC(=O)[C@H](CC(N)=O)NC(=O)[C@H](Cc2c[nH]c3ccccc23)N(C)C(=O)[C@H](C(C)C)NC(=O)[C@H](Cc2cccc(Cl)c2)N(C)C(=O)[C@H](C(C)C)NC(=O)[C@H](C)NC(=O)CSC[C@@H](C(N)=O)NC(=O)[C@H](Cc2ccc(O)cc2)N(C)C(=O)[C@H](Cc2ccccc2)NC(=O)[C@@H](CCCNC(=N)N)NC(=O)[C@H](CCCCN)NC(=O)[C@H]([C@@H](C)CC)NC1=O` [compound 373], 1 to 100 nM; in that of `CC[C@H](C)[C@@H]1NC(=O)[C@H](Cc2ccc(OC)cc2)NC(=O)[C@H](Cc2ccc(O)cc2)NC(=O)[C@H](CC(N)=O)NC(=O)[C@H](Cc2c[nH]c3ccccc23)N(C)C(=O)[C@H](C(C)C)NC(=O)[C@H](Cc2cccc(Cl)c2)N(C)C(=O)[C@H](C(C)C)NC(=O)[C@H](C)NC(=O)CSC[C@@H](C(=O)NCCOCCOCCOCCOCCC(N)=O)NC(=O)[C@H](Cc2ccc(O)cc2)N(C)C(=O)[C@H](Cc2ccccc2)NC(=O)[C@@H](CCCNC(=N)N)NC(=O)[C@H](CCCCN)NC(=O)[C@H]([C@@H](C)CC)NC1=O` [compound 374] ({CH2CO}-AV[NMePhe(3-Cl)]V[NMeW]NYY(Me)IIK[dR]F[NMeY]C[PEG4]-NH2; thioether N-15), 1 to 100 nM. Still for that read-out and setting: in the case of `CC[C@H](C)[C@@H]1NC(=O)[C@H](Cc2ccc(OC)cc2)NC(=O)[C@H](Cc2ccc(O)cc2)NC(=O)[C@H](CC(N)=O)NC(=O)[C@H](Cc2c[nH]c3ccccc23)N(C)C(=O)[C@H](C(C)C)NC(=O)[C@H](Cc2cccc(Cl)c2)N(C)C(=O)[C@H](C(C)C)NC(=O)[C@H](C)NC(=O)CSC[C@@H](C(=O)NCC(=O)NCC(=O)NCC(=O)NCC(=O)N[C@@H](CO)C(=O)N[C@@H](CO)C(=O)N[C@@H](CS)C(N)=O)NC(=O)[C@H](Cc2ccc(O)cc2)N(C)C(=O)[C@H](Cc2ccccc2)NC(=O)[C@@H](CCCNC(=N)N)NC(=O)[C@H](CCCCN)NC(=O)[C@H]([C@@H](C)CC)NC1=O` [compound 376] it was 1 to 100 nM; in that of `CC[C@H](C)[C@@H]1NC(=O)[C@H](Cc2ccc(OC)cc2)NC(=O)[C@H](Cc2ccc(O)cc2)NC(=O)[C@H](CC(N)=O)NC(=O)[C@H](Cc2c[nH]c3ccccc23)N(C)C(=O)[C@H](C(C)C)NC(=O)[C@H](Cc2cccc(Cl)c2)N(C)C(=O)[C@H](C(C)C)NC(=O)[C@H](C)NC(=O)CSC[C@@H](C(N)=O)NC(=O)[C@H](Cc2ccc(O)cc2)N(C)C(=O)[C@H](Cc2ccccc2)NC(=O)[C@@H](CCCNC(=N)N)NC(=O)[C@H](CCCCN)N(C)C(=O)[C@H]([C@@H](C)CC)NC1=O` [compound 377], 1 to 100 nM.
